Active and inactive are the calls of the source. The rule behind the calls is not given here.
Legend:
[1] = target: Cholinesterase (Equus caballus) (UniProt P81908); experiment: Inhibition of equine serum BChE using butyrylthiocholine iodide as substrate up to 100 nM after 60 mins by Ellman's method
Acetylcholinesterase = Acetylcholinesterase (Homo sapiens, UniProt P22303)
Sequence of Acetylcholinesterase (P22303 whole entry): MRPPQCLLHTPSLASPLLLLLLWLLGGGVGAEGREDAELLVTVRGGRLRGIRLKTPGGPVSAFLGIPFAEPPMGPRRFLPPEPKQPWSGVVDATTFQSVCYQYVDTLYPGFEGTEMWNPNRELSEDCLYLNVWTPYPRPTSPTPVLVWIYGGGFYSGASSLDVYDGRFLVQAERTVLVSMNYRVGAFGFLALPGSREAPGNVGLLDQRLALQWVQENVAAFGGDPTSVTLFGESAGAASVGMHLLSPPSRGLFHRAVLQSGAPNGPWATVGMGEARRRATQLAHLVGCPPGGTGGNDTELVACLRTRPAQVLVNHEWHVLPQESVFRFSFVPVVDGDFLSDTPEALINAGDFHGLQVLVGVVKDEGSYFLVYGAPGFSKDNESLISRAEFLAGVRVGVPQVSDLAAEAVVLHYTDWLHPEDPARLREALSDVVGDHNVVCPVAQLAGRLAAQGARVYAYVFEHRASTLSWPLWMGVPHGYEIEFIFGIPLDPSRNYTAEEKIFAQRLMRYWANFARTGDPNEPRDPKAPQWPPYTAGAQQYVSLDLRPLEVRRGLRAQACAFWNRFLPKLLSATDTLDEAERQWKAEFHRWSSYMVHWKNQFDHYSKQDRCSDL
Description: Inhibition of human erythrocyte AChE using acetylthiocholine iodide as substrate after 60 mins by Ellman's method

Sequence of Cholinesterase (Equus caballus) (P81908 whole entry): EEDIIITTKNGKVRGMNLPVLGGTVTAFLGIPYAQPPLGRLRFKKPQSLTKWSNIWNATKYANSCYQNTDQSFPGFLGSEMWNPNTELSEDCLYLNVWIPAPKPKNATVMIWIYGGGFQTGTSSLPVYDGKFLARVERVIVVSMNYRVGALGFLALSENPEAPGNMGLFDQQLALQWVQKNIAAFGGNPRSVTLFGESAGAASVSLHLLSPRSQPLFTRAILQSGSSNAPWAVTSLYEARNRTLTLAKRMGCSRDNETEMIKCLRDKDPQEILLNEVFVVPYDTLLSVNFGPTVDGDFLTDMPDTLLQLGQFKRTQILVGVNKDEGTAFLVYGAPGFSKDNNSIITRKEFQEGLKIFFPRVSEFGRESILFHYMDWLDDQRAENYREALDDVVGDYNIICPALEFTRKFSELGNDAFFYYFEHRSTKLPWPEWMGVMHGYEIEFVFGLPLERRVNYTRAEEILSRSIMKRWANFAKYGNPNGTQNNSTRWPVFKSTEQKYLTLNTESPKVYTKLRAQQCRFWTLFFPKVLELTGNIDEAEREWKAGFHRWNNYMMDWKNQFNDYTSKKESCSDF

SMILES	inhibition [1]	Ki (Acetylcholinesterase) [µM]
Clc1ccc([C@@H]2CC(c3c4ccccc4cc4ccccc34)=NN2)cc1	inactive	–
Cc1ccc([C@@H]2CC(c3c4ccccc4cc4ccccc34)=NN2)cc1	–	> 0.1
O=[N+]([O-])c1ccc([C@@H]2CC(c3c4ccccc4cc4ccccc34)=NN2)cc1	–	> 0.1
Oc1ccc([C@@H]2CC(c3c4ccccc4cc4ccccc34)=NN2)cc1	–	> 0.1
c1ccc([C@@H]2CC(c3c4ccccc4cc4ccccc34)=NN2)nc1	inactive	0.0413
O=[N+]([O-])c1cccc([C@@H]2CC(c3c4ccccc4cc4ccccc34)=NN2)c1	inactive	0.0206
Oc1ccccc1[C@@H]1CC(c2c3ccccc3cc3ccccc23)=NN1	inactive	0.0244
Oc1ccc([C@@H]2CC(c3c4ccccc4cc4ccccc34)=NN2)c(O)c1	inactive	0.0072
c1ccc([C@@H]2CC(c3c4ccccc4cc4ccccc34)=NN2)cc1	inactive	0.0302
COc1ccc([C@@H]2CC(c3c4ccccc4cc4ccccc34)=NN2)cc1	inactive	0.0254

— ChEMBL document CHEMBL2311270, “Additional acetyl cholinesterase inhibitory property of diaryl pyrazoline derivatives” (Bioorg Med Chem Lett, 2013)
